Columns and labels:
Assay type in all cases: cell-based
A2058 = experiment: Short-term growth-inhibition assay (Example 1)
Description: (§1) FIGS. 1A-1B: Short-term growth-inhibition assay of a panel of melanoma cell lines including BRAF (V600E) cell lines and an NRAS (Q61R) mutated cell line. FIG. 1A. Cells were treated with increasing concentrations of N-[3-[(5-Chloro-1H-pyrrolo[2,3-b]pyridin-3-yl)carbonyl]-2,4-difluorophenyl]-1-propanesulfonamide (PLX-4720) for 72 h and cell viability was determined using CellTiter-Blue by measuring the absorbance at 540 nm in a microplate reader. Error bars show data +standard error. Means were derived from four replicates (n=4). FIG. 1B. Long-term colony formation assay of the indicated cells. Cells were grown in the absence or presence of PLX-4720 at the indicated concentrations for 15-20 days. For each cell line, all dishes were fixed at the same time, stained and photographed. […]
(§2) The inventors quantified the effect of exposing these cell lines to PLX-4720 on the half-maximum inhibitory concentration (IC50) (Table 1).

Mel624 = experiment: Short-term growth-inhibition assay (Example 1)
Description: as §1, §2

A375 = experiment: Short-term growth-inhibition assay, PLX-4720 (Example 1); conditions: Homo sapiens, A-375; A375 cell line; read-out: half-maximum inhibitory concentration (IC50)
Description: (§3) FIGS. 1A-1B: Short-term growth-inhibition assay of a panel of melanoma cell lines including BRAF (V600E) cell lines and an NRAS (Q61R) mutated cell line. FIG. 1A. Cells were treated with increasing concentrations of N-[3-[(5-Chloro-1H-pyrrolo[2,3-b]pyridin-3-yl)carbonyl]-2,4-difluorophenyl]-1-propanesulfonamide (PLX-4720) for 72 h and cell viability was determined using CellTiter-Blue by measuring the absorbance at 540 nm in a microplate reader. Error bars show data +standard error. Means were derived from four replicates (n=4). FIG. 1B. Long-term colony formation assay of the indicated cells. Cells were grown in the absence or presence of PLX-4720 at the indicated concentrations for 15-20 days. For each cell line, all dishes were fixed at the same time, stained and photographed.
(§4) Cell proliferation was measured using a WST-1 reagent (Roche Applied Science, IN, USA). Melanoma cells were plated with 5000 cells per well in 96-well tissue culture plates. After 24 hours, the cells were treated with drugs or DMSO at the indicated concentrations, in triplicates. WST-1 reagent was added to the wells and incubated at 37° C. for 2 hours before and after the treatment period of 48 hours. The plates were then read at 450 nm on a Wallac Victor^3 1420 Multilabel Counter (Perkin Elmer, ON, Canada). Absorbance readings are expressed in terms of cell proliferation as percent of the control cells growth within the 48 hours of treatment.
as §2

Mel10 = experiment: as above; conditions: Mel10 cell line; read-out: half-maximum inhibitory concentration (IC50)
Description: as §3, §4, §2

Mel888 = experiment: as above; conditions: Mel888 cell line; read-out: half-maximum inhibitory concentration (IC50)
Description: as §3, §4, §2

SK-Mel28 = experiment: as above; conditions: Homo sapiens, SK-MEL-28; SK-Mel28 cell line; read-out: half-maximum inhibitory concentration (IC50)
Description: as §3, §4, §2

SK-Mel5 = experiment: as above; conditions: Homo sapiens, SK-MEL-5; SK-Mel5 cell line; read-out: half-maximum inhibitory concentration (IC50)
Description: as §3, §4, §2

eIF4F complex = experiment: Cap binding assay (m7GTP-Sepharose beads)
Description: FIG. 3: Examination of eIF4F complex formation by the “cap binding assay” in the indicated cell lines. Eluates from the beads (m7G-bound) and total extracts (input) were analyzed on 4% to 12% gradient gel electrophoresis, followed by Western blotting with the indicated antibodies.
Cells were grown for 48 h in 10% Fetal Bovine Serum (FBS) followed by 24 h without FBS. Cells were subsequently grown for 12 h in the absence or the presence of trastuzumab. Cells were harvested and lysed in ice-cold lysis buffer (KCl 150 mM, Hepes pH 7.5 50 mM, DTT 2 mM, Tween 20 0.2%, and Complete Protease Inhibitor Cocktail from Roche). Cell lysates were incubated with 7-methyl-GTP-sepharose 4B beads (Amersham Biosciences) for 2 h at 4° C. Eluates from the beads (7 mG-bound) and total extracts (Tot.) were analyzed on 4-12% gradient gel electrophoresis followed by western blot. Experiments were repeated at least 4 times.
In a so-called “cap binding assay”, synthetic m7GTP-Sepharose beads were used to capture eIF4E and its binding partners, eIF4G (called Cap-ON complex) and 4EBP1 (called Cap-OFF complex). The inventors observed that following PLX-4720 treatment, the amount of eIF4E-bound 4EBP1 (Cap-OFF complex) was increased, whereas the quantity of eIF4E-bound eIF4G (Cap-ON complex), i.e. the formation of the active eIF4F complex, was decreased in the two PLX-4720-sensitive cell lines (A375, Mel888) (FIG. 3). In contrast, and consistent with the inventors' hypothesis, the formation of the eIF4F complex was unchanged in the two cell lines (Mel624, A2058) with less sensitivity to PLX-4720.

[1] = sensitive cell lines A375, Mel888

- IC50 (A375): 400 nM
- IC50 (SK-Mel28): 400 nM
- IC50 (SK-Mel5): 1500 nM
- formation / disruption of the eIF4F (eIF4E-eIF4G) complex (eIF4F complex; less sensitive cell lines Mel624, A2058): unchanged
- amount of eIF4E-bound 4EBP1 (Cap-OFF complex) (eIF4F complex; [1]): increased
- quantity of eIF4E-bound eIF4G (Cap-ON complex) (eIF4F complex; [1]): decreased
Structure (SMILES): CCCS(=O)(=O)Nc1ccc(F)c(C(=O)c2c[nH]c3ncc(Cl)cc23)c1F [PLX-4720, N-[3-[(5-Chloro-1H-pyrrolo[2,3-b]pyridin-3-yl)carbonyl]-2,4-difluorophenyl]-1-propanesulfonamide]
- sensitivity of the cell line compared to the other BRAF (V600E)-mutated melanoma cell lines (A2058; A2058, short-term and long-term proliferation assays, Example 1): less sensitive
- IC50 (A2058; Homo sapiens, A2058 cell line, read-out: half-maximum inhibitory concentration (IC50)): 2400 nM
- sensitivity of the cell line compared to the other BRAF (V600E)-mutated melanoma cell lines (Mel624; Mel624, short-term and long-term proliferation assays, Example 1): less sensitive
- IC50 (Mel624; Mel624 cell line, read-out: half-maximum inhibitory concentration (IC50)): 4400 nM
- IC50 (Mel10): > 10000 nM
- IC50 (Mel888): 100 nM

Source: US20240393340A1, “PROGNOSIS AND PREDICTIVE BIOMARKERS AND BIOLOGICAL APPLICATIONS THEREOF” (INSTITUT GUSTAVE ROUSSY, priority 2013, published 2024)
